Laboratory results from patent US20250230193A1, “CYCLIC COMPOUND HAVING SELECTIVE KRAS INHIBITORY EFFECT ON HRAS AND NRAS” (CHUGAI SEIYAKU KABUSHIKI KAISHA, priority 2022, published 2025).
*1 amine or outer side, *2 acyl side, *3 side chain or, on linkers, in order; H or OH if unused. Where a SMILES comes first, the peptide text is derived from it. Bridges are numbered along the chain shown (N, C = ends). [ ]: non-standard residue; d: D form. The star is where a group is joined. hPhe(3,5-F2-4-CF3) = N[C@@H](CCc1cc(F)c(C(F)(F)F)c(F)c1)C(=O)O; X21 = O=C([C@H](Cc1ccc(C(F)(F)F)cc1)N(CC1CCCC1)[*:1])[*:2]; hPhe(3-Cl-4-CF3) = N[C@@H](CCc1ccc(C(F)(F)F)c(Cl)c1)C(=O)O; X41 = Cc1ccc(C[C@@H](C(=O)[*:2])N(CCC(F)(F)F)[*:1])cc1; NPrPhe(4-CF3) = CCCN[C@@H](Cc1ccc(C(F)(F)F)cc1)C(=O)O; NPrPhe(4-Me) = CCCN[C@@H](Cc1ccc(C)cc1)C(=O)O; NMeGly(cPent) = CN[C@H](C(=O)O)C1CCCC1; NMeD = CN[C@@H](CC(=O)O)C(=O)O; NMeL = CN[C@@H](CC(C)C)C(=O)O; Iva = CC[C@](C)(N)C(=O)O; Morpholide = C1CN(*)CCO1; NMeA = CN[C@@H](C)C(=O)O; Ac5c = NC1(C(=O)O)CCCC1; Aze = O=C(O)[C@@H]1CCN1; Ac4c = NC1(C(=O)O)CCC1; NEtG = CCNCC(=O)O; Sar = CNCC(=O)O

Experiments:
[1] = target: GDP-bound NRAS wild-type protein (Homo sapiens, UniProt P01111); assay: Binding to NRAS by surface plasmon resonance (SPR), Single Cycle Kinetics; settings: SPR
GDP-bound NRAS wild-type protein, sequence (P01111 whole entry): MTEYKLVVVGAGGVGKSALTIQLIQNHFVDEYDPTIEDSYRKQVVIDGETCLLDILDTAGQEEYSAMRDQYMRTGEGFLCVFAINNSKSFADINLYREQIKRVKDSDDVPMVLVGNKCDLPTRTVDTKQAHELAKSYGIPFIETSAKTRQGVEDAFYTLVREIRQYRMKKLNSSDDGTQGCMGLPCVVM

[2] = target: GDP-bound HRAS wild-type protein (Homo sapiens, UniProt P01112); assay: Binding to HRAS by surface plasmon resonance (SPR), Single Cycle Kinetics; settings: SPR
GDP-bound HRAS wild-type protein, sequence (P01112 whole entry): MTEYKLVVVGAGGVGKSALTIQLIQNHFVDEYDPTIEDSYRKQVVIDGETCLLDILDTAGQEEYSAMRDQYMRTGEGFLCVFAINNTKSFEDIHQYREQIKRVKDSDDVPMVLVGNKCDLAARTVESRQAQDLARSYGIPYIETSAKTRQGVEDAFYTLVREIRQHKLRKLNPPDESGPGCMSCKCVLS

Compound	NRAS/KRAS (ratio of KD for GDP-bound NRAS wild-type to KD for KRAS) ([1]; KD ratio NRAS/KRAS)	HRAS/KRAS (ratio of KD for GDP-bound HRAS wild-type to KD for KRAS) ([2]; KD ratio HRAS/KRAS)	also measured
CC[C@H](C)[C@@H]1NC(=O)[C@H](CC(C)C)N(C)C(=O)C[C@@H](C(=O)N2CCOCC2)N(C)C(=O)[C@H](C2CCCC2)N(C)C(=O)C2(CCCC2)NC(=O)[C@@H]2CCCN2C(=O)[C@H](CCc2ccc(C(F)(F)F)c(Cl)c2)NC(=O)CN(C)C(=O)[C@H](Cc2ccc(C(F)(F)F)cc2)N(CC2CCCC2)C(=O)CN(C)C(=O)CN(C)C1=O [PP0124] ([NMeL]I[Sar][Sar][X21][Sar][hPhe(3-Cl-4-CF3)]P[Ac5c][NMeGly(cPent)][NMeD]-Morpholide; lactam N-11)	C (A compound having a KD ratio of 0.1 or more and less than 3 is denoted as C)	C (A compound having a KD ratio of 0.1 or more and less than 3 is denoted as C)	–
CCCN1C(=O)[C@@H]2CCN2C(=O)CN(C)C(=O)[C@H]([C@@H](C)CC)NC(=O)[C@H](CC(C)C)N(C)C(=O)C[C@@H](C(=O)N2CCOCC2)N(C)C(=O)[C@H](C2CCCC2)N(C)C(=O)[C@](C)(CC)NC(=O)[C@@H]2CCCN2C(=O)[C@H](CCc2cc(F)c(C(F)(F)F)c(F)c2)NC(=O)CN(C)C(=O)[C@@H]1Cc1ccc(C(F)(F)F)cc1 [PP0790] ([NMeL]I[Sar][Aze][NPrPhe(4-CF3)][Sar][hPhe(3,5-F2-4-CF3)]P[Iva][NMeGly(cPent)][NMeD]-Morpholide; lactam N-11)	–	–	NRAS/KRAS (ratio of KD value with respect to GDP-bound NRAS wild-type protein to KD value with respect to KRAS) ([1]; KD ratio NRAS/KRAS): C (A compound having a KD ratio of 0.1 or more and less than 3 is denoted as C); HRAS/KRAS (ratio of KD value with respect to GDP-bound HRAS wild-type protein to KD value with respect to KRAS) ([2]; KD ratio HRAS/KRAS): B (a compound having 3 or more and less than 10 is denoted as B)
CC[C@H](C)[C@@H]1NC(=O)[C@H](CC(C)C)N(C)C(=O)C[C@@H](C(=O)N(C)C)N(C)C(=O)[C@H](C2CCCC2)N(C)C(=O)C2(CCC2)NC(=O)[C@@H]2C[C@@H](C)CN2C(=O)[C@H](CCc2cc(F)c(C(F)(F)F)c(F)c2)NC(=O)CN(C)C(=O)[C@H](Cc2ccc(C)cc2)N2CC/C=C\C[C@@H](C2=O)N(C)C(=O)CN(C)C1=O [PP1866]	–	–	NRAS/KRAS (ratio of KD value for NRAS to KD value for KRAS) ([1]; KD ratio, GDP-bound NRAS wild-type vs GDP-bound KRAS wild-type): A (a compound having 10 or more and less than 20 is denoted as A); HRAS/KRAS (ratio of KD value for HRAS to KD value for KRAS) ([2]; KD ratio, GDP-bound HRAS wild-type vs GDP-bound KRAS wild-type): B (a compound having 3 or more and less than 10 is denoted as B)
CCCN1C(=O)[C@@H]2CCN2C(=O)[C@H](C)N(C)C(=O)[C@H]([C@@H](C)CC)NC(=O)[C@H](CC(C)C)N(C)C(=O)C[C@@H](C(=O)N2CCOCC2)N(C)C(=O)[C@H](C2CCCC2)N(C)C(=O)C2(CCC2)NC(=O)[C@@H]2CCCN2C(=O)[C@H](CCc2ccc(C(F)(F)F)c(Cl)c2)NC(=O)CN(C)C(=O)[C@@H]1Cc1ccc(C(F)(F)F)cc1 [PP0198] ([NMeL]I[NMeA][Aze][NPrPhe(4-CF3)][Sar][hPhe(3-Cl-4-CF3)]P[Ac4c][NMeGly(cPent)][NMeD]-Morpholide; lactam N-11)	C (A compound having a KD ratio of 0.1 or more and less than 3 is denoted as C)	B (a compound having 3 or more and less than 10 is denoted as B)	–
CCCN1C(=O)CN(C)C(=O)CN(C)C(=O)[C@H]([C@@H](C)CC)NC(=O)[C@H](CC(C)C)N(C)C(=O)C[C@@H](C(=O)N2CCOCC2)N(C)C(=O)[C@H](C2CCCC2)N(C)C(=O)C2(CCCC2)NC(=O)[C@@H]2CCCN2C(=O)[C@H](CCc2ccc(C(F)(F)F)c(Cl)c2)NC(=O)CN(CC)C(=O)[C@@H]1Cc1ccc(C)cc1 [PP0066] ([NMeL]I[Sar][Sar][NPrPhe(4-Me)][NEtG][hPhe(3-Cl-4-CF3)]P[Ac5c][NMeGly(cPent)][NMeD]-Morpholide; lactam N-11)	B (a compound having 3 or more and less than 10 is denoted as B)	C (A compound having a KD ratio of 0.1 or more and less than 3 is denoted as C)	–
CCCN1C(=O)CN(C)C(=O)CN(CC)C(=O)[C@H]([C@@H](C)CC)NC(=O)[C@H](CC(C)C)N(C)C(=O)C[C@@H](C(=O)N2CCOCC2)N(C)C(=O)[C@H](C2CCCC2)N(C)C(=O)C2(CCCC2)NC(=O)[C@@H]2CCN2C(=O)[C@H](CCc2ccc(C(F)(F)F)c(Cl)c2)NC(=O)CN(C)C(=O)[C@@H]1Cc1ccc(C(F)(F)F)cc1 [PP0294] ([NMeL]I[NEtG][Sar][NPrPhe(4-CF3)][Sar][hPhe(3-Cl-4-CF3)][Aze][Ac5c][NMeGly(cPent)][NMeD]-Morpholide; lactam N-11)	B (a compound having 3 or more and less than 10 is denoted as B)	C (A compound having a KD ratio of 0.1 or more and less than 3 is denoted as C)	–
CC[C@H](C)[C@@H]1NC(=O)[C@H](CC(C)C)N(C)C(=O)C[C@@H](C(=O)N2CCOCC2)N(C)C(=O)[C@H](C2CCCC2)N(C)C(=O)C2(CCCC2)NC(=O)[C@@H]2CCCN2C(=O)[C@H](CCc2ccc(C(F)(F)F)c(Cl)c2)NC(=O)CN(C)C(=O)[C@H](Cc2ccc(C)cc2)N(CCC(F)(F)F)C(=O)CN(C)C(=O)CN(C)C1=O [PP0103] ([NMeL]I[Sar][Sar][X41][Sar][hPhe(3-Cl-4-CF3)]P[Ac5c][NMeGly(cPent)][NMeD]-Morpholide; lactam N-11)	B (a compound having 3 or more and less than 10 is denoted as B)	C (A compound having a KD ratio of 0.1 or more and less than 3 is denoted as C)	–
